According to patent US4476122A, “Alkyloximes of 7-amino-thiazolyl-acetamido-cephalosporanic acids” (Roussel Uclaf, priority 1976, dated 1984):
Converted amounts (≈) assume the structure as drawn. Read-outs that look alike come from different tables or passages of the source.

Columns and labels:
[1] = tested on: Klebsiella pneumonia 52,145; assay: Experimental infection with Klebsiella pneumonia in mice (C); format: in vivo; conditions: subcutaneous
Method: The activity of the products of Examples 4 and 6 was studied on an experimental infection of Klebsiella pneumonia in mice. Groups of 10 male mice weighing 21 g were infected by an intraperitoneal injection of 0.5 ml of a culture in nutrive media of Klebsiella pneumonia 52,145 diluted by 1/1000 with distilled water. The products were administered subcutaneously 30 minutes, 4, 8, 24 and 32 hours after the injection and the number of dead mice was determined during 10th days.

[2] = tested on: Serratia Resistant Gentamicine 2 532; assay: MIC, liquid medium dilution; format: cell-based
Method: (§1) The method used was a dilution of a liquid medium where a series of tubes received the same quantity of a sterile nutritive media and increasing doses of the test compounds were placed therein. Then each tube was seeded with a bacterial strain and was incubated for 24 or 48 hours at 37° C. in an oven. The increasing inhibition was determined by transillumination to determine the minimum inhibiting concentration (MIC in μg/ml) and the results are reported in the following Tables.

[3] = tested on: Staphylococcus aureus ATCC 6 538 Pen-Sensitive; assay: MIC, liquid medium dilution; format: cell-based
Method: as §1

[4] = tested on: Bacillus subtilis ATCC 6 633; assay: MIC, liquid medium dilution; format: cell-based
Method: as §1

[5] = tested on: Proteus vulgaris (indol+) A 232; assay: MIC, liquid medium dilution; format: cell-based
Method: as §1

[6] = tested on: Streptococcus pyogenes A 561; assay: MIC, liquid medium dilution; format: cell-based; conditions: read-out: MIC
Method: as §1

[7] = tested on: Klebsiella pneumoniae Exp. 52 145; assay: MIC, liquid medium dilution; format: cell-based; conditions: read-out: MIC
Method: as §1

[8] = tested on: Escherichia Coli Exp. TO26 B6; assay: MIC, liquid medium dilution; format: cell-based
Method: as §1

[9] = tested on: Salmonella typhimurium 420; assay: MIC, liquid medium dilution; format: cell-based; conditions: Salmonella enterica
Method: as §1

[10] = tested on: Escherichia Coli Resistant Gentamicine, Tobramycine R 55 123 D; assay: MIC, liquid medium dilution; format: cell-based
Method: as §1

[11] = tested on: Escherichia Coli Resistant Tetracycline ATCC 11 303; assay: MIC, liquid medium dilution; format: cell-based; conditions: read-out: MIC
Method: as §1

[12] = tested on: Streptococcus faecalis 5 432; assay: MIC, liquid medium dilution; format: cell-based
Method: as §1

[13] = tested on: Klebsiella pneumoniae 2 536 Resistant Gentamicine; assay: MIC, liquid medium dilution; format: cell-based
Method: as §1

Providencia Du 48 = assay: MIC, liquid medium dilution; format: cell-based
Method: as §1

[14] = tested on: Staphylococcus aureus exp. n° 54 146; assay: MIC, liquid medium dilution; format: cell-based
Method: as §1

[15] = tested on: Proteus mirabilis (indol-) A 235; assay: MIC, liquid medium dilution; format: cell-based
Method: as §1

[16] = tested on: Streptococcus faecalis 99 F 74; assay: MIC, liquid medium dilution; format: cell-based; conditions: Enterococcus faecalis
Method: as §1

[17] = tested on: Escherichia Coli Sensitive Tetracycline ATCC 9 637; assay: MIC, liquid medium dilution; format: cell-based
Method: as §1

[18] = tested on: Pseudomonas 3 935 Exp. SG; assay: MIC, liquid medium dilution; format: cell-based; conditions: 3935EXP.SG
Method: as §1

[19] = tested on: Staphylococcus aureus UC 1 128 Pen-Resistant; assay: MIC, liquid medium dilution; format: cell-based
Method: as §1

Enterobacter cloacae 681 = assay: MIC, liquid medium dilution; format: cell-based
Method: as §1

[20] = tested on: Escherichia coli (T) O26 B6; assay: Experimental infection with Escherichia coli (T) O26 B6 in mice; format: in vivo; conditions: s. c.
Method: The products of Example 6 and 10 were studied for their activity against an experimental infection of Escherichia coli in groups of 10 male mice weighing about 22 g. The mice received an intraperitoneal injection of 0.5 ml of a 24 hour old culture in a nutritive media of Escherichia coli (T) O26 B6 of the Pasteur Institute diluted 1/5.5 with distilled water. The test product was administered subcutaneously or orally 1 hour and 5 and 24 hours after the infection and the number of dead was determined during 8 days.

[21] = Enterococcus faecalis, 5432, 24 h
[22] = Enterococcus faecalis, 5432, 48 h
[23] = Enterobacter cloacae, 681, 48 h

CO/N=C(\C(=O)NC1C(=O)N2C(C(=O)O)=C(CSc3nnnn3C)CS[C@H]12)c1csc(N)n1 (some centres unmarked) [Example 4, 7-[{2-(2-amino-4-thiazolyl)-2-methoxyiminoacetyl}amino]-3-[(1-methyl-tetrazol-5-yl)-thiomethyl]-ceph-3-eme-4-carboxylic acid]
Mice alive on the 10th day ([1]; 5 × 0,1 mg): 9/10
Mortality after 5 J (number of dead of 10) ([1]; 5 × 0,1 mg): 1
Mice alive on the 10th day ([1]; 5 × 0,25 mg): 10/10
MIC ([2]; 24 h, read-out: MIC): 1 µg/mL (≈ 1.95 µM)
MIC ([2]; 48 h, read-out: MIC): 1 µg/mL (≈ 1.95 µM)
MIC ([3]; ATCC6, 24 h, read-out: MIC): 1 µg/mL (≈ 1.95 µM)
MIC ([3]; ATCC6, 48 h, read-out: MIC): 1 µg/mL (≈ 1.95 µM)
MIC ([4]; ATCC6, 24 h): 2 µg/mL (≈ 3.91 µM)
MIC ([4]; ATCC6, 48 h, read-out: MIC): 5 µg/mL (≈ 9.77 µM)
MIC ([5]; 24 h, read-out: MIC): 3 µg/mL (≈ 5.86 µM)
MIC ([5]; 48 h): 20 µg/mL (≈ 39.1 µM)
MIC ([6]; A561, 24 h): ≤ 0.02 µg/mL
MIC ([6]; A561, 48 h): ≤ 0.02 µg/mL
MIC ([7]; EXP.52145, 24 h): 0.02 µg/mL (≈ 0.0391 µM)
MIC ([7]; EXP.52145, 48 h): 0.02 µg/mL (≈ 0.0391 µM)
MIC ([8]; 24 h): 0.2 µg/mL (≈ 0.391 µM)
MIC ([8]; 48 h): 0.2 µg/mL (≈ 0.391 µM)
MIC ([9]; 24 h): 0.2 µg/mL (≈ 0.391 µM)
MIC ([9]; 48 h): 0.2 µg/mL (≈ 0.391 µM)
MIC ([10]; 24 h): 0.2 µg/mL (≈ 0.391 µM)
MIC ([10]; 48 h): 0.2 µg/mL (≈ 0.391 µM)
MIC ([11]; ATCC11, 24 h): 0.05 µg/mL (≈ 0.0977 µM)
MIC ([11]; ATCC11, 48 h): 0.05 µg/mL (≈ 0.0977 µM)
MIC [12, 21]: 2 µg/mL (≈ 3.91 µM)
MIC [12, 22]: 2 µg/mL (≈ 3.91 µM)
MIC ([13]; 24 h): 0.4 µg/mL (≈ 0.782 µM)
MIC ([13]; 48 h, read-out: MIC): 0.6 µg/mL (≈ 1.17 µM)
MIC (Providencia Du 48; DU48, 24 h): 2 µg/mL (≈ 3.91 µM)
MIC (Providencia Du 48; DU48, 48 h): 2 µg/mL (≈ 3.91 µM)
MIC ([14]; 24 h): 2 µg/mL (≈ 3.91 µM)
MIC ([14]; 48 h): 2 µg/mL (≈ 3.91 µM)
MIC ([15]; 24 h, read-out: MIC): 0.05 µg/mL (≈ 0.0977 µM)
MIC ([15]; 48 h, read-out: MIC): 0.05 µg/mL (≈ 0.0977 µM)
MIC ([16]; 99F74, 24 h): 2 µg/mL (≈ 3.91 µM)
MIC ([16]; 99F74, 48 h, read-out: MIC): 10 µg/mL (≈ 19.5 µM)
MIC ([17]; ATCC9, 24 h): 0.4 µg/mL (≈ 0.782 µM)
MIC ([17]; ATCC9, 48 h): 0.4 µg/mL (≈ 0.782 µM)
MIC ([18]; 24 h): 20 µg/mL (≈ 39.1 µM)
MIC ([18]; 48 h, read-out: MIC): 40 µg/mL (≈ 78.2 µM)
MIC ([19]; UC1, 24 h): 2 µg/mL (≈ 3.91 µM)
MIC ([19]; UC1, 48 h): 2 µg/mL (≈ 3.91 µM)
MIC (Enterobacter cloacae 681; Enterobacter cloacae, 681, 24 h): 20 µg/mL (≈ 39.1 µM)
MIC (Enterobacter cloacae 681; [23]): 20 µg/mL (≈ 39.1 µM)

CO/N=C(\C(=O)NC1C(=O)N2C(C(=O)O)=C(CSC(C)=O)CSC12)c1csc(N)n1 (centres unmarked) [Example 6, 3-acetylthiomethyl-7-[{2-(2-amino-4-thiazolyl)-2-methoxyiminoacetyl}amino]-ceph-3-eme-4-carboxylic acid]
Mice surviving on the 8th day ([20]; 3 × 0,1 mg): 5/10
Mortality after 5 H 30 (number of dead of 10) ([20]; 3 × 0,1 mg): 1
Mortality after 21 H 30 (number of dead of 10) ([20]; 3 × 0,1 mg): 1
Mortality after 24 H (number of dead of 10) ([20]; 3 × 0,1 mg): 1
Mortality after 47 H (number of dead of 10) ([20]; 3 × 0,1 mg): 2
Mice surviving on the 8th day ([20]; 3 × 0,2 mg): 7/10
Mortality after 21 H 30 (number of dead of 10) ([20]; 3 × 0,2 mg): 1
Mortality after 47 H (number of dead of 10) ([20]; 3 × 0,2 mg): 1
Mortality after 70 H (number of dead of 10) ([20]; 3 × 0,2 mg): 1
Mice surviving on the 8th day ([20]; 3 × 0,3 mg): 10/10
Mice surviving on the 8th day ([20]; 3 × 0,05 mg): 4/10
Mortality after 5 J (number of dead of 10) ([20]; 3 × 0,05 mg): 1
Mortality after 21 H 30 (number of dead of 10) ([20]; 3 × 0,05 mg): 4
Mortality after 54 H (number of dead of 10) ([20]; 3 × 0,05 mg): 1
Mice alive on the 10th day ([1]; 5 × 0,5 mg): 10/10
Mice alive on the 10th day ([1]; 5 × 0,25 mg): 10/10
Mice alive on the 10th day ([1]; 5 × 1 mg): 10/10
MIC ([2]; 24 h): 1 µg/mL (≈ 2.12 µM)
MIC ([2]; 48 h): 2 µg/mL (≈ 4.24 µM)
MIC ([3]; ATCC6, 24 h): 2 µg/mL (≈ 4.24 µM)
MIC ([3]; ATCC6, 48 h): 2 µg/mL (≈ 4.24 µM)
MIC ([4]; ATCC6, 24 h): 1 µg/mL (≈ 2.12 µM)
MIC ([4]; ATCC6, 48 h): 2 µg/mL (≈ 4.24 µM)
MIC ([5]; 24 h): 5 µg/mL (≈ 10.6 µM)
MIC ([5]; 48 h, read-out: MIC): 10 µg/mL (≈ 21.2 µM)
MIC ([6]; A561, 24 h): ≤ 0.02 µg/mL
MIC ([6]; A561, 48 h): ≤ 0.02 µg/mL
MIC ([7]; EXP.52145, 24 h): 0.1 µg/mL (≈ 0.212 µM)
MIC ([7]; EXP.52145, 48 h): 0.1 µg/mL (≈ 0.212 µM)
MIC ([8]; 24 h): 0.4 µg/mL (≈ 0.848 µM)
MIC ([8]; 48 h): 0.4 µg/mL (≈ 0.848 µM)
MIC ([9]; 24 h): 0.4 µg/mL (≈ 0.848 µM)
MIC ([9]; 48 h): 0.4 µg/mL (≈ 0.848 µM)
MIC ([10]; 24 h, read-out: MIC): 0.6 µg/mL (≈ 1.27 µM)
MIC ([10]; 48 h): 0.6 µg/mL (≈ 1.27 µM)
MIC ([11]; ATCC11, 24 h): 0.1 µg/mL (≈ 0.212 µM)
MIC ([11]; ATCC11, 48 h): 0.1 µg/mL (≈ 0.212 µM)
MIC [12, 21]: 5 µg/mL (≈ 10.6 µM)
MIC [12, 22]: 5 µg/mL (≈ 10.6 µM)
MIC ([13]; 24 h): 1 µg/mL (≈ 2.12 µM)
MIC ([13]; 48 h): 2 µg/mL (≈ 4.24 µM)
MIC (Providencia Du 48; DU48, 24 h, read-out: MIC): 10 µg/mL (≈ 21.2 µM)
MIC (Providencia Du 48; DU48, 48 h, read-out: MIC): 10 µg/mL (≈ 21.2 µM)
MIC ([14]; 24 h): 2 µg/mL (≈ 4.24 µM)
MIC ([14]; 48 h): 2 µg/mL (≈ 4.24 µM)
MIC ([15]; 24 h): 0.05 µg/mL (≈ 0.106 µM)
MIC ([15]; 48 h, read-out: MIC): 0.1 µg/mL (≈ 0.212 µM)
MIC ([16]; 99F74, 24 h): 5 µg/mL (≈ 10.6 µM)
MIC ([16]; 99F74, 48 h): > 40 µg/mL
MIC ([17]; ATCC9, 24 h, read-out: MIC): 0.6 µg/mL (≈ 1.27 µM)
MIC ([17]; ATCC9, 48 h): 0.6 µg/mL (≈ 1.27 µM)
MIC ([19]; UC1, 24 h): 5 µg/mL (≈ 10.6 µM)
MIC ([19]; UC1, 48 h): 5 µg/mL (≈ 10.6 µM)
MIC (Enterobacter cloacae 681; Enterobacter cloacae, 681, 24 h, read-out: MIC): 10 µg/mL (≈ 21.2 µM)
MIC (Enterobacter cloacae 681; [23]): 20 µg/mL (≈ 42.4 µM)
